Assay [1] has as its system female NZB/WF1 SLE mice. The assay is described as follows: Titers of anti-dsDNA antinuclear antibodies in plasma of female NZB/WF1 SLE mice (Mouse Anti-dsDNA IgG ELISA kit). Type of assay: in vivo. How it is done: (§1) Female NZB/WF1 mice spontaneously develop human SLE-like syndromes, such as generation of antinuclear autoantibodies, proteinuria, and renal toxicity to cause death. The disease is more severe in female mice than in male mice; the morbidity of female mice is also higher than that of male mice. Therefore, female NZB/WF1 mice were used for screening anti-SLE drugs in this study.
(§2) Thirty female NZB/WF1 mice (purchased from Jackson Lab, USA) between 12-24 weeks of age were analyzed biweekly to determine proteinuria levels, monthly to assess the titers of antinuclear autoantibody (ANA). The increased titers of ANA and positive response implicated that female NZB/WF1 mice were going to develop SLE and were ready for grouping. At 22 weeks of age, the animals showing the abovementioned syndromes were randomly divided into 3 groups (10 mice per group, water was administered to negative control group, steroid was given to positive control group, and cyclohexenone compounds of Antrodia camphorata was administered to experiment group), and the start time for the experiment was set as week zero. In addition, ten B6 mice (purchased from National Laboratory Animal Center, Taiwan) without SLE syndrome were normal mice served as blank group.
The blank group in Table 1 was B6 mice of no SLE syndrome, which received no treatment and normal diet for natural growth. NZB/WF1 female mice that were able to express SLE syndromes were served in negative control and positive control groups. Mice in the former group received normal water; in the latter were orally medicated with 1.25 mg/kg of prednisolone, the SLE drug. Mice in the experiment group were orally medicated with 50 mg/kg of cyclohexenone compounds from Example 1. The mice were fed with the abovementioned substances once per day starting at 23 weeks of age, and this period of time was referred to as the first week of this experiment. […]
The titers of dsDNA antinuclear antibodies were determined in this study to assess the effects of cyclohexenone compounds from Antrodia camphorata on SLE mice. […]

The subject of assay [2] is female NZB/WF1 SLE mice. The assay is described as follows: Changes of proteinuria in female NZB/WF1 SLE mice (Bio-Rad protein assay of urine). The settings on record: for proteinuria level: negative control 246 mg/dl. It is filed as in vivo. Here is the method:
as §1, §2
The blank group in Table 1 was B6 mice of no SLE syndrome, which received no treatment and normal diet for natural growth. NZB/WF1 female mice that were able to express SLE syndromes were served in negative control and positive control groups. Mice in the former group received normal water; in the latter were orally medicated with 1.25 mg/kg of prednisolone, the SLE drug. Mice in the experiment group were orally medicated with 50 mg/kg of cyclohexenone compounds from Example 1. […]
SLE patients develop renal inflammation and damage, which cause leakage of protein from kidney into the fluid. […] Ten μl of urine was assayed with Bio-Rad Protein Assay Dye Reagent Concentrate (Bio-Rad Laboratories, USA) and read under […] with an ELISA analyzer to determine the protein concentration with a standard curve.

Each structure is given as a SMILES string.

Consider `COC1=C(OC)C(O)C(C/C=C(\C)CC/C=C(\C)CCC=C(C)C)C(C)C1=O` (stereo not drawn) [4-hydroxy-2,3-dimethoxy-6-methyl-5(3,7,11-trimethyl-dodeca-2,6,10-trienyl)-cyclohex-2-enone], for which the “titers of anti-dsDNA antinuclear antibodies compared with negative group” value in assay [1] (experiment group, 50 mg/kg oral once per day, during 8 weeks of experiment) is on record as “significantly lower titers of anti-dsDNA antinuclear antibodies than those in the negative group”. In assay [1] (experiment group, 50 mg/kg oral once per day, week 8), the “titer of antinuclear antibodies decreased to” value came out at 34%. The compound also had a proteinuria level in assay [2] (experiment group, 50 mg/kg oral once per day, after 6 weeks of experiment) of 118.2 mg/dL. The “fold increase of proteinuria level versus before experiment” value in assay [2] (experiment group, 50 mg/kg oral once per day, after 6 weeks, negative control 2.76-fold) was 1.3 fold.

Take `C[C@]12C=CC(=O)C=C1CC[C@@H]1[C@@H]2[C@@H](O)C[C@@]2(C)[C@H]1CC[C@]2(O)C(=O)CO` [prednisolone, reference compound]: the “titer of anti-dsDNA antinuclear antibodies decreased to” value in assay [1] (positive group, prednisolone 1.25 mg/kg oral once per day, week 8) is reported as “around 50%”. Also, the proteinuria level in assay [2] (positive control group, prednisolone 1.25 mg/kg oral once per day, after 6 weeks) amounted to 32.6 mg/dL.
